# Values of other authors, collected in patent US20220362242A1, “METHODS AND COMPOSITIONS FOR TREATING MOVEMENT DISORDERS” (Edgewise Therapeutics, Inc., priority 2018, published 2022).
# Tested on: embryos from zebrafish model of DMD
# Conditions: control vs BTS treated muscles, FIG. 2
smiles,measurement,value
"Cc1ccc(S(=O)(=O)NCc2ccccc2)cc1 [BTS, N-benzyl-p-tolyl-sulfonamide]",protection of muscles from pathological muscle derangement,protect muscles from pathological muscle derangement
